Assay [1] has as its system advanced non-resectable HCC. Conditions: patients with advanced non-resectable HCC; cited from earlier work.
Assay [2] concerns the target HLA-A2 (Homo sapiens, UniProt P04439, D140Y/D185E/D98H/E176V/E277Q/G131W/G231S/I119V/I121R/I166T/I218V/L10V/L300P/L318F/N151K/N90K/P208A/P217A/Q86G/Q94H/R138H/R169H/T345S). The following applies: prediction in US20150306197 A1 / US20110142842 A1, not tested further; cited from earlier work.
For assay [3], the system named is CD8+ T cells. The assay can be described thus: In vitro T-cell priming assay (aAPCs loaded with peptide/MHC and anti-CD28, multimer staining readout). The assay is classed as cell-based, human. Conditions: in vitro immunogenicity of HLA class I peptides. As to the method: In an aspect, the peptides are pre-screened for immunogenicity before being included in the warehouse. By way of example, and not limitation, the immunogenicity of the peptides included in the warehouse is determined by a method comprising in vitro T-cell priming through repeated stimulations of CD8+ T cells from healthy donors with artificial antigen presenting cells loaded with peptide/MHC complexes and anti-CD28 antibody.
In order to obtain information regarding the immunogenicity of the TUMAPs of the present invention, the inventors performed investigations using an in vitro T-cell priming assay based on repeated stimulations of CD8+ T cells with artificial antigen presenting cells (aAPCs) loaded with peptide/MHC complexes and anti-CD28 antibody.
In order to perform in vitro stimulations by artificial antigen presenting cells loaded with peptide-MHC complex (pMHC) and anti-CD28 antibody, the inventors first isolated CD8+ T cells from fresh HLA-A*02 leukapheresis products via positive selection using CD8 microbeads (Miltenyi Biotec, Bergisch-Gladbach, Germany) of healthy donors obtained from the University clinics Mannheim, Germany, after informed consent.
PBMCs and isolated CD8+ lymphocytes were incubated in T-cell medium (TCM) until use consisting of RPMI-Glutamax (Invitrogen, Karlsruhe, Germany) supplemented with 10% heat inactivated human AB serum (PAN-Biotech, Aidenbach, Germany), 100 U/ml Penicillin/100 μg/ml Streptomycin (Cambrex, Cologne, Germany), 1 mM sodium pyruvate (CC Pro, Oberdorla, Germany), 20 μg/ml Gentamycin (Cambrex). 2.5 ng/ml IL7 (PromoCell, Heidelberg, Germany) and 10 U/ml IL-2 (Novartis Pharma, Nürnberg, Germany) were also added to the TCM at this step.
Generation of pMHC/anti-CD28 coated beads, T-cell stimulations and readout was performed in a highly defined in vitro system using four different pMHC molecules per stimulation condition and 8 different pMHC molecules per readout condition.
The purified co-stimulatory mouse IgG2a anti human CD28 Ab 9.3 (Jung et al., 1987) was chemically biotinylated using Sulfo-N-hydroxysuccinimidobiotin as recommended by the manufacturer (Perbio, Bonn, Germany). Beads used were 5.6 μm diameter streptavidin coated polystyrene particles (Bangs Laboratories, Illinois, USA).
pMHC used for positive and negative control stimulations were A*0201/MLA-001 (peptide […] (SEQ ID NO. 303) from modified Melan-A/MART-1) and A*0201/DDX5-001 ([…] from DDX5, SEQ ID NO. 304), respectively.
800.000 beads/200 μl were coated in 96-well plates in the presence of 4×12.5 ng different biotin-pMHC, washed and 600 ng biotin anti-CD28 were added subsequently in a volume of 200 μl. Stimulations were initiated in 96-well plates by co-incubating 1×10^6 CD8+ T cells with 2×10^5 washed coated beads in 200 μl TCM supplemented with 5 ng/ml IL-12 (PromoCell) for 3 days at 37° C. Half of the medium was then exchanged by fresh TCM supplemented with 80 U/ml IL-2 and incubating was continued for 4 days at 37° C. This stimulation cycle was performed for a total of three times. For the pMHC multimer readout using 8 different pMHC molecules per condition, a two-dimensional combinatorial coding approach was used as previously described (Andersen et al., 2012) with minor modifications encompassing coupling to 5 different fluorochromes. Finally, multimeric analyses were performed by staining the cells with Live/dead near IR dye (Invitrogen, Karlsruhe, Germany), CD8-FITC antibody clone SK1 (BD, Heidelberg, Germany) and fluorescent pMHC multimers. For analysis, a BD LSRII SORP cytometer equipped with appropriate lasers and filters was used. Peptide specific cells were calculated as percentage of total CD8+ cells. Evaluation of multimeric analysis was done using the FlowJo software (Tree Star, Oregon, USA). In vitro priming of specific multimer+CD8+ lymphocytes was detected by comparing to negative control stimulations.

The subject of assay [4] is HLA-A*02. The assay can be described thus: MHC binding assay by UV-ligand exchange and beta2m ELISA, HLA-A*02. More on the design: species or system human. The following applies: binding to HLA-A*02 ranged by peptide exchange yield (UV-ligand exchange, β2m ELISA). The source says:
MHC Binding Assays Candidate peptides for T cell based therapies according to the present invention were further tested for their MHC binding capacity (affinity). The individual peptide-MHC complexes were produced by UV-ligand exchange, where a UV-sensitive peptide is cleaved upon UV-irradiation, and exchanged with the peptide of interest as analyzed. Only peptide candidates that can effectively bind and stabilize the peptide-receptive MHC molecules prevent dissociation of the MHC complexes. To determine the yield of the exchange reaction, an ELISA was performed based on the detection of the light chain (β2m) of stabilized MHC complexes. The assay was performed as generally described in Rodenko et al. (Rodenko et al., 2006).
96 well MAXISorp plates (NUNC) were coated over night with 2 ug/ml streptavidin in PBS at room temperature, washed 4× and blocked for 1 h at 37° C. in 2% BSA containing blocking buffer. Refolded HLA-A*02:01/MLA-001 monomers served as standards, covering the range of 15-500 ng/ml. Peptide-MHC monomers of the UV-exchange reaction were diluted 100 fold in blocking buffer. Samples were incubated for 1 h at 37° C., washed four times, incubated with 2 ug/ml HRP conjugated anti-β2m for 1 h at 37° C., washed again and detected with TMB solution that is stopped with […]. Absorption was measured at 450 nm. Candidate peptides that show a high exchange yield (preferably higher than 50%, most preferred higher than 75%) are generally preferred for a generation and production of antibodies or fragments thereof, and/or T cell receptors or fragments thereof, as they show sufficient avidity to the MHC molecules and prevent dissociation of the MHC complexes.
(In general: In an ELISA, binding on a coated surface is turned into a signal by an enzyme label.)

`CNC(=O)c1cc(Oc2ccc(NC(=O)Nc3ccc(Cl)c(C(F)(F)F)c3)cc2)ccn1` [Sorafenib]: the increase of survival entry in assay [1] is reported as “about 3 months”.
Turning to “KLFTSVFGV (listed as Homo sapiens) [SEQ ID No. 305]”, the “predicted binding to HLA-A2 / HLA-A*0201” value in assay [2] was “binding to HLA-A*0201”.
In the case of “249 (GLCERLVSL; listed as Homo sapiens) [compound 249]”, the “Wells positive [%]” value in assay [3] is listed as “+ (<20% = +)”. Moreover, in assay [4], the Peptide exchange result is “++++ (> = 75% = ++++)”.

The record behind these values is patent publication US10143731B2, “Peptides and combination of peptides for use in immunotherapy against various cancers” (immatics biotechnologies GmbH, priority 2015, dated 2018).
